For 29 compounds, IC50 results are on record in US9018383B2, “Acylamino-substituted cyclic carboxylic acid derivatives and their use as pharmaceuticals” (Sanofi, priority 2009, dated 2015).

Sequence of human Edg-2 receptor (Q92633 whole entry): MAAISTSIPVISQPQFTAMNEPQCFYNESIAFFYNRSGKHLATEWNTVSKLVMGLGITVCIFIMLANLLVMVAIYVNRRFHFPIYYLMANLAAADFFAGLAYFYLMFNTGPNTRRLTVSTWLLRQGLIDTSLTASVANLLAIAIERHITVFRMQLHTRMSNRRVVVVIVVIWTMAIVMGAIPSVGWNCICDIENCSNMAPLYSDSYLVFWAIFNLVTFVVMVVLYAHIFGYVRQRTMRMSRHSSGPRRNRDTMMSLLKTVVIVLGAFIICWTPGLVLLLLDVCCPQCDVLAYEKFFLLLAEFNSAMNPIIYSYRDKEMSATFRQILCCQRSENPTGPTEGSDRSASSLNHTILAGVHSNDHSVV

The experiment addresses human Edg-2 receptor (Homo sapiens, UniProt Q92633). Put plainly: Determination of Edg-2 receptor inhibition by FLIPR measurements (LPA-mediated calcium liberation). It counts as cell-based. As to conditions: CHO cells overexpressing human Edg-2 receptor, LPA 100 nM, fluo-4 calcium fluorescence; read-out: Inhibitory concentrations IC50 for inhibition of the Edg-2 receptor. As to the method: A) Determination of Edg-2 Receptor Inhibition by Fluorescence Imaging Plate Reader (FLIPR) Measurements
The inhibition of the Edg-2 receptor (LPA1 receptor) by the compounds of the invention was quantified by the inhibitory effect on the LPA-mediated calcium liberation in a cell-based calcium fluorescence assay by use of Chinese hamster ovarian (CHO) cells in which the human Edg-2 receptor was stably overexpressed (Flp-In system, Invitrogen). […] Changes in intracellular calcium were determined by fluorescence measurement with the calcium-sensitive dye fluo-4 (Invitrogen) in a fluorescence imaging plate reader (FLIPR, […]).
CHO cells stably overexpressing the human Edg-2 receptor were seeded (40.000 per well) in black clear-bottomed poly-D-lysine-coated 96 well plates (Becton Dickinson, Biocoat cellware) approximately 18-24 h prior to the experiments. Cells were grown in an incubator at 37° C., 5% carbon dioxide and 95% humidity in cell culture media based on F-12 glutamax media (Gibco, #31765) supplemented with 1% (vol/vol) penicilline/streptomycine (PAN, #P06-07100), 10% (vol/vol) fetal calf serum (FCS, PAA, #A15-151) and hygromycin B (Invitrogen, #10687-010) 300 mg/l (final concentrations).
Prior to the FLIPR experiment, cells were loaded with fluo-4 acetoxymethyl ester (fluo-4 AM, Invitrogen, #F14202) for 60 min in an incubator at 37° C., 5% carbon dioxide and 95% humidity in dye-loading buffer consisting of Hanks' Balanced Salt Solution (HBSS, Invitrogen, #14065049) supplemented with fluo-4 AM at 2 μM (all data given for final concentration), Pluronic® F-127 0.05% (vol/vol) (Invitrogen, #P-3000 MP), HEPES 20 mM (Gibco, #15630), probenecid 2.5 mM (Sigma, #P-8761) and bovine serum albumin 0.05% (BSA, Sigma, #A-6003), adjusted to pH 7.5 with sodium hydroxide. During cell loading, fluo-4 AM is cleaved by intracellular esterase resulting in trapping of the dye fluo-4 within the cells. Loading was terminated by washing of the cells in a cell washer (Tecan Power washer) three times with the buffer specified afore but without fluo-4 AM and BSA. This latter buffer was also used as the buffer in the subsequent cell fluorescence measurements.
The dye-loaded and washed cells were pre-incubated for approximately 5 min with various concentrations of the test compound added as a solution in DMSO (0.3% vol/vol maximum final concentration of DMSO), or with DMSO in the respective concentration only (positive control). Subsequent addition of LPA (18:1, 1-oleoyl-sn-glycerol 3-phosphate; 100 nM final concentration) leads to liberation of intracellular calcium from internal stores resulting in a large transient increase of the fluo-4 fluorescence signal which was monitored over approximately 3 min. The percent inhibition caused by the test compound was determined from the maximum fluorescence response after LPA addition to cells pre-incubated with the compound as compared to the maximum fluorescence response after LPA addition to cells pre-incubated with DMSO only. All fluorescence values were corrected for the baseline fluorescence values obtained with cells which were pre-incubated with DMSO only and were not treated with LPA (baseline control). All measurements were performed in triplicate. From the percent inhibitions the inhibitory concentration IC50 was determined.
With `CC[C@H]1CC[C@](NC(=O)c2cnc(OC)c(-c3cccc(OC(F)(F)F)c3)c2)(C(=O)O)CC1` [Example 299, cis-4-ethyl-1-{[6-methoxy-5-(3-trifluoromethoxy-phenyl)-pyridine-3-carbonyl]-amino}-cyclohexanecarboxylic acid], the IC50 was less than 100 nM.

Turning to `CC[C@H]1CC[C@@](NC(=O)c2cnc(OC)c(OCCc3cccc(Cl)c3)c2)(C(=O)O)CC1` [Example 397, trans-1-({5-[2-(3-Chloro-phenyl)-ethoxy]-6-methoxy-pyridine-3-carbonyl}-amino)-4-ethyl-cyclohexanecarboxylic acid], the IC50 was less than 100 nM.

As to `CC[C@@H]1C[C@]1(NC(=O)c1cnc(OC)c(OCCc2cccc(Cl)c2)c1)C(=O)O` [Example 361, (1R,2R)-1-({5-[2-(3-Chloro-phenyl)-ethoxy]-6-methoxy-pyridine-3-carbonyl}-amino)-2-ethyl-cyclopropanecarboxylic acid], the IC50 was less than 100 nM.

Turning to `CC[C@H]1CC[C@](NC(=O)c2ccc(C=O)c(-c3cccc(C(F)(F)F)c3)c2)(C(=O)O)CC1` [Example 428, cis-4-Ethyl-1-[(6-formyl-3′-trifluoromethyl-biphenyl-3-carbonyl)-amino]-cyclohexanecarboxylic acid], the IC50 was less than 100 nM.

For `CC[C@H]1CC[C@](NC(=O)c2cnc(OC)c(OCCc3cccc(CCO)c3)c2)(C(=O)O)CC1` [Example 423, cis-4-Ethyl-1-[(5-{2-[3-(2-hydroxy-ethyl)-phenyl]-ethoxy}-6-methoxy-pyridine-3-carbonyl)-amino]-cyclohexanecarboxylic acid], the IC50 was less than 100 nM.

On to “cis-1-{[5-(3-Chloro-4-methoxy-phenyl)-6-methoxy-pyridine-3-carbonyl]-amino}-4-ethyl-cyclohexanecarboxylic acid [Example 305]”, for which the IC50 was less than 100 nM.

As to `Cc1cccc(CCOc2cc(C(=O)N[C@]3(C(=O)O)CC[C@@H](C)CC3)ccc2OCCO)c1` [Example 122, trans-1-[4-(2-Hydroxy-ethoxy)-3-(2-m-tolyl-ethoxy)-benzoylamino]-4-methyl-cyclohexanecarboxylic acid], the IC50 is less than 100 nM.

Regarding `CC[C@H]1CC[C@@](NC(=O)c2cnc(OC)c(OCCc3cccc(OC(F)(F)F)c3)c2)(C(=O)O)CC1` [Example 398, trans-4-Ethyl-1-({6-methoxy-5-[2-(3-trifluoromethoxy-phenyl)-ethoxy]-pyridine-3-carbonyl}-amino)-cyclohexanecarboxylic acid], the IC50 is less than 100 nM.

Regarding `COc1ncc(C(=O)NC2(C(=O)O)CCCCCC2)cc1-c1cc(F)c(F)c(F)c1` [Example 98], the IC50 is less than 100 nM.

For `COc1cc(F)c(-c2cc(C(=O)N[C@]3(C(=O)O)CC[C@@H](C)CC3)ccc2C(F)(F)F)c(F)c1` [Example 444, 1-[(2′,6′-Difluoro-4′-methoxy-6-trifluoromethyl-biphenyl-3-carbonyl)-amino]-4-methyl-cyclohexanecarboxylic acid], the IC50 is 100 to 1000 nM.

Take `COc1ccc(C(=O)NC2(C(=O)O)CCCCCC2)cc1-c1cccc(C2COC2)c1` [Example 457, 1-[(6-Methoxy-3′-oxetan-3-yl-biphenyl-3-carbonyl)-amino]-cycloheptanecarboxylic acid]: the IC50 lay in the range of 100 to 1000 nM.

Regarding `COCCOc1ccc(C(=O)N[C@]2(C(=O)O)CC[C@H](C)CC2)cc1OCCc1cccc(C)c1` [Example 118, cis-1-[4-(2-Methoxy-ethoxy)-3-(2-m-tolyl-ethoxy)-benzoylamino]-4-methyl-cyclohexane-carboxylic acid], the IC50 is 1000 to 30000 nM.

As to `CC[C@H]1CC[C@@](NC(=O)c2cnc(OC)c(-c3cc(F)c(F)c(F)c3)c2)(C(=O)O)CC1` [Example 312], the IC50 fell in the range of 100 to 1000 nM.

`COc1ccc(C(=O)N[C@]2(C(=O)O)CC[C@@H](C)CC2)cc1OCCc1cccc(CCO)c1` [Example 110, trans-1-(3-{2-[3-(2-Hydroxy-ethyl)-phenyl]-ethoxy}-4-methoxy-benzoylamino)-4-methyl-cyclohexanecarboxylic acid]: the IC50 is less than 100 nM.

`CC[C@H]1CC[C@@](NC(=O)c2ccc(OC)c(OCCc3cccc(CCO)c3)c2)(C(=O)O)CC1` [Example 112, trans-4-Ethyl-1-(3-{2-[3-(2-hydroxy-ethyl)-phenyl]-ethoxy}-4-methoxy-benzoylamino)-cyclohexanecarboxylic acid]: the IC50 is less than 100 nM.

On to `COc1ccc(C(=O)NC2(C(=O)O)CCCCCCC2)cc1OCCc1cc(C)ccc1F` [Example 24, 1-{3-[2-(2-Fluoro-5-methyl-phenyl)-ethoxy]-4-methoxy-benzoylamino}-cyclooctanecarboxylic acid], for which the IC50 lay in the range of 100 to 1000 nM.

On to `COc1ncc(C(=O)NC2(C(=O)O)CCCCCC2)cc1-c1cccc(C(C)C)c1` [Example 95], for which the IC50 is 100 to 1000 nM.

In the case of `COc1ccc(C(=O)NC2(C(=O)O)CCC(C(C)(C)C)CC2)cc1OCCc1cccc(C)c1` (centres unmarked) [Example 366], the IC50 was in the range of 100 to 1000 nM.

Take `COc1ccc(C(=O)NC2(C(=O)O)CCCC2OCc2ccccc2)cc1OCCc1cccc(C)c1` (single isomer, unassigned) [Example 66, 2-Benzyloxy-1-[4-methoxy-3-(2-m-tolyl-ethoxy)-benzoylamino]-cyclopentanecarboxylic acid]: the IC50 lay in the range of 100 to 1000 nM.

For `C=CC1CC1(NC(=O)c1ccc(OC)c(OCCc2cccc(C)c2)c1)C(=O)O` (centres unmarked) [Example 40], the IC50 was 100 to 1000 nM.

Consider `CC[C@H]1CC[C@](NC(=O)c2cnc(OC)c(-c3ccc(OC)c(F)c3)c2)(C(=O)O)CC1` [Example 411], for which the IC50 was less than 100 nM.

Regarding `COc1ccc(C(=O)NC2(C(=O)O)CCCCCCC2)cc1OCCc1cccc(C)c1` [Example 23, 1-[4-Methoxy-3-(2-m-tolyl-ethoxy)-benzoylamino]-cyclooctanecarboxylic acid], the IC50 was 100 to 1000 nM.

`COc1ccc(C(=O)NC2(C(=O)O)CCCOCC2)cc1OCCc1cccc(C)c1` (centres unmarked) [Example 25, 4-[4-Methoxy-3-(2-m-tolyl-ethoxy)-benzoylamino]-oxepane-4-carboxylic acid]: the IC50 was 1000 to 30000 nM.

`COc1ncc(C(=O)N[C@]2(C(=O)O)CC[C@H](C(F)(F)F)CC2)cc1OCCc1cccc(C)c1` [Example 402, cis-1-{[6-Methoxy-5-(2-m-tolyl-ethoxy)-pyridine-3-carbonyl]-amino}-4-trifluoromethyl-cyclohexanecarboxylic acid]: the IC50 was less than 100 nM.

For the compound `CC[C@H]1CC[C@](NC(=O)c2ccc(CCS(C)(=O)=O)c(OCCc3cccc(C)c3)c2)(C(=O)O)CC1` [Example 462, Cis-4-Ethyl-1-[4-(2-methanesulfonyl-ethyl)-3-(2-m-tolyl-ethoxy)-benzoylamino]-cyclohexanecarboxylic acid], the IC50 lay within 100 to 1000 nM.

With `COc1ncc(C(=O)N[C@]2(C(=O)O)CC[C@@H](C)CC2)cc1OCCc1cc(OC(F)(F)F)ccc1F` [Example 82, trans-1-({5-[2-(2-Fluoro-5-trifluoromethoxy-phenyl)-ethoxy]-6-methoxy-pyridine-3-carbonyl}-amino)-4-methyl-cyclohexanecarboxylic acid], the IC50 is less than 100 nM.

Consider `COc1ccc(-c2cncc(C(=O)N[C@]3(C(=O)O)CC[C@H](C(F)(F)F)CC3)c2)cc1Cl` [Example 451, 1-{[5-(3-Chloro-4-methoxy-phenyl)-pyridine-3-carbonyl]-amino}-4-trifluoromethyl-cyclohexanecarboxylic acid], for which the IC50 was less than 100 nM.

`COc1ccc(C(=O)N[C@]2(C(=O)O)CC[C@H](C)CC2)cc1OCCc1cc(Cl)ccc1F` [Example 404, cis-1-{3-[2-(5-Chloro-2-fluoro-phenyl)-ethoxy]-4-methoxy-benzoylamino}-4-methyl-cyclohexanecarboxylic acid]: the IC50 is less than 100 nM.

As for `COc1ccc(C(=O)NC2(C(=O)O)CCCCCC2)cc1OCCc1cc(C)ccc1F` [Example 1, 1-{3-[2-(2-Fluoro-5-methyl-phenyl)-ethoxy]-4-methoxy-benzoylamino}-cycloheptanecarboxylic acid], the IC50 lay within 100 to 1000 nM.
